Data from US5338874A, “Cis oxalato (trans 1-1,2-cyclohexanediamine) PT(II) having optically high purity” (Tanaka Kikinzoku Kogyo K.K., priority 1993, dated 1994).

Tested on: L1210
Assay: Tumor resistance against L1210 (i.p. transplanted, CDF1 mice), T/C
Format: in vivo
Set-up: key to Toxic mark (T: large weight loss): P: Effective (Over 125%); Toxic (Large Weight Loss)
Conditions: for Cured mice out of six / Toxic mark (T: large weight loss): i.p. on days 1, 5 and 9
Protocol: The test was conducted by prescribing L1210 in a peritoneal cavity of six CDF1 mice/one group (the number of transplanted cells is […] per mouse and prescribing the medicine in the poritoncal cavity on a first day, a fifth day and a ninth day.

SMILES	Cured mice out of six (6.25 mg/kg)	Cured mice out of six (12.5 mg/kg)	Toxic mark (T: large weight loss) (25 mg/kg)	Tumor Resistance T/C (%) (25 mg/kg, i.p. on days 1, 5 and 9, six CDF1 mice/group)	Cured mice out of six (6.25 mg/kg, listed as Example 2)	Cured mice out of six (6.25 mg/kg, listed as Example 3)	Cured mice out of six (12.5 mg/kg, listed as Example 2)	Cured mice out of six (12.5 mg/kg, listed as Example 3)	Activity against tumor leukemia L1210 (in words) (high optical purity compound)
N[C@@H]1CCCC[C@H]1N.O=C([O-])C(=O)[O-].[Pt+2] (relative stereo) [Comp. Ex., cis-oxalate(trans-1-1,2-cyclohexanediamine) Pt(II), reference compound]	1/6	4/6	T	81%					
N[C@@H]1CCCC[C@H]1N.O=C([O-])C(=O)[O-].[Pt+2] (relative stereo) [Example 1, cis-oxalato (trans-1-1,2-cyclohexanediamine) Pt(II)]	3/6	2/6	T		3/6	3/6	2/6	2/6	active against a tumor "leukomia L1210"
